Calls of active or inactive are those of the source. The calls are words filed in the database; no cut-off is given here.
Assays:
[1] = AUC (0 to t) in Sprague-Dawley rat at 10 mg/kg, po measured upto 24 hrs by UPLC-MS/MS analysis; assay type: ADME, organism-based; parameters: dose 10 mg/kg, time < 24 hrs, route po; details: in vivo
[2] = target: Mitogen-activated protein kinase 8 (Mus musculus) (UniProt Q91Y86); assay: Binding affinity to JNK1 in protein lysate of LPS-stimulated mouse J774A.1 cells assessed as protein degradation in presence of pronase at 10 to 40 uM measured after overnight incubation by immunoblotting based drug affinity responsive target stability (DARTS) assay; assay type: subcellular; details: J774.1, dose 10-40 µM
Sequence of Mitogen-activated protein kinase 8 (Mus musculus) (Q91Y86 whole entry): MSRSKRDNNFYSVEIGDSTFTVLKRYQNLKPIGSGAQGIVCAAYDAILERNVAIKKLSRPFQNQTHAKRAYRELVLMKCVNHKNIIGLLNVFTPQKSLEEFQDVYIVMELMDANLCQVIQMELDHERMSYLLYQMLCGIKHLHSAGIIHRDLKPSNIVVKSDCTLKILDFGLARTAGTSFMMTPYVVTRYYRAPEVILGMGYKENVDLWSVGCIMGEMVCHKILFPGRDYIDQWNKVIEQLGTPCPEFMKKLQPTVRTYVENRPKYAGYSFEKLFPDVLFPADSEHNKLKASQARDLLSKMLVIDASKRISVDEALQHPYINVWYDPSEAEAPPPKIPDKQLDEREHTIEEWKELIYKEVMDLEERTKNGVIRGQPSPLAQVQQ

[3] = target: T1, Mitogen-activated protein kinase kinase kinase 7 (Mus musculus) (UniProt Q62073); assay: Inhibition of TAK1 phosphorylation in mouse J774A.1 cells pretreated at 10 uM for 2 hrs followed by induced with LPS for 30 mins by Western blot analysis; assay type: cell-based; details: J774.1, time 2.5 hrs
T1 sequence (whole entry): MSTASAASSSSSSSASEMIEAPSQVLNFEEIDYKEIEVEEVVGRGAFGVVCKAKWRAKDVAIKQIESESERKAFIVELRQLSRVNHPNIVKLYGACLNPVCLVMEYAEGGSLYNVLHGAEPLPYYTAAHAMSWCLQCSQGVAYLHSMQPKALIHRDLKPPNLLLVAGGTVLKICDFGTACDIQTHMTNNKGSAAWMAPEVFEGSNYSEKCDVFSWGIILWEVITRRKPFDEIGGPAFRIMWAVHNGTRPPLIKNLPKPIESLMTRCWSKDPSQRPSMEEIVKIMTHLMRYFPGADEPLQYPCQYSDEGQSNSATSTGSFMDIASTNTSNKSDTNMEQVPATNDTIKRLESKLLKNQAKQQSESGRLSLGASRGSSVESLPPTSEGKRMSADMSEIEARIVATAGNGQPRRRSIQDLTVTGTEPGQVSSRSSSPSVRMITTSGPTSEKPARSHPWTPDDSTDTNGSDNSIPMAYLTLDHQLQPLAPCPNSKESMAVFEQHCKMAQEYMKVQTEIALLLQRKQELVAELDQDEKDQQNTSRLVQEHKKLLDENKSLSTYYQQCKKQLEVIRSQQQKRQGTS

J774.A1 [4] = assay: Antiinflammatory activity against mouse J774A.1 cells assessed as inhibition of LPS-stimulated TNFalpha release measured after 30 mins by ELISA; assay type: functional, cell-based; details: J774.A1, 0.5 h
[5] = Subacute toxicity in ICR mouse assessed as pathological change in lung at 500 to 100 mg/kg, IG measured for 10 days by hematoxylin and eosin dye based light microscopy; assay type: organism-based; details: in vivo, po, 240 h, dose 500-100 mg/kg, time 10 day
J774.A1 [6] = assay: Antiinflammatory activity against mouse J774A.1 cells assessed as inhibition of LPS-stimulated TNFalpha release measured at 10 uM after 30 mins by ELISA relative to control; assay type: functional; details: J774.A1, 0.5 h
[7] = Subacute toxicity in ICR mouse assessed as pathological change in liver at 500 to 100 mg/kg, IG measured for 10 days by hematoxylin and eosin dye based light microscopy; assay type: organism-based; details: in vivo, po, 240 h, dose 500-100 mg/kg, time 10 day
Mus musculus [8] = assay: Antiinflammatory activity against LPS-induced acute lung injury C57 mouse model assessed as decrease in LPS-induced protein concentration in broncho alveolar lavage fluid at 20 mg/kg, po thrice at 12 hrs interval; assay type: functional, organism-based; details: Bronchoalveolar lavage
[9] = Subacute toxicity in ICR mouse assessed as pathological change in spleen at 500 to 100 mg/kg, IG measured for 10 days by hematoxylin and eosin dye based light microscopy; assay type: organism-based; details: in vivo, po, 240 h, dose 500-100 mg/kg, time 10 day
Mus musculus [10] = assay: Antiinflammatory activity against LPS-induced acute lung injury C57 mouse model assessed as decrease in LPS-induced IL-6 level in serum at 20 to 40 mg/kg, po thrice at 12 hrs interval followed 30 mins treated with LPS by ELISA; assay type: functional, organism-based; details: dose 20-40 mg/kg, time 36.5 hrs
[11] = Cytotoxicity against mouse J774A.1 cells assessed as cell viability at 10 uM measured after 24 hrs incubation by MTT assay; assay type: toxicity, cell-based, J774.A1; details: read-out: Activity
Mus musculus [12] = assay: Antiinflammatory activity against LPS-induced acute lung injury C57 mouse model assessed as improvement in alveolar structure at 20 mg/kg, po thrice at 12 hrs interval by hematoxylin and eosin dye based light microscopy; assay type: functional, organism-based; details: time 36.0 hrs
THP-1 [13] = assay: Antiinflammatory activity against human THP-1 cells assessed as inhibition of LPS-stimulated TNFalpha mRNA expression pretreated for 2 hrs followed by stimulated with LPS by RT-qPCR analysis; assay type: functional, cell-based; details: dose 2.5-10 µM
THP-1 [14] = assay: Antiinflammatory activity against human THP-1 cells assessed as inhibition of LPS-stimulated IL6 mRNA expression pretreated for 2 hrs followed by stimulated with LPS by RT-qPCR analysis; assay type: functional, cell-based; details: dose 2.5-10 µM
Mus musculus [15] = assay: Antiinflammatory activity against LPS-induced acute lung injury C57 mouse model assessed as decrease in LPS-induced total cell count in broncho alveolar lavage fluid at 20 mg/kg, po thrice at 12 hrs interval; assay type: functional, organism-based; details: Bronchoalveolar lavage
Mus musculus [16] = assay: Antiinflammatory activity against LPS-induced acute lung injury C57 mouse model assessed as decrease in LPS-induced IL-6level in blood at 20 mg/kg, po thrice at 12 hrs interval; assay type: functional, organism-based
[17] = target: Transcription factor p65 (Mus musculus) (UniProt Q04207); assay: Inhibition of P65 phosphorylation in mouse J774A.1 cells pretreated at 10 uM for 2 hrs followed by induced with LPS for 30 mins by Western blot analysis; assay type: cell-based; details: J774.1, time 2.5 hrs
Sequence of Transcription factor p65 (Mus musculus) (Q04207 whole entry): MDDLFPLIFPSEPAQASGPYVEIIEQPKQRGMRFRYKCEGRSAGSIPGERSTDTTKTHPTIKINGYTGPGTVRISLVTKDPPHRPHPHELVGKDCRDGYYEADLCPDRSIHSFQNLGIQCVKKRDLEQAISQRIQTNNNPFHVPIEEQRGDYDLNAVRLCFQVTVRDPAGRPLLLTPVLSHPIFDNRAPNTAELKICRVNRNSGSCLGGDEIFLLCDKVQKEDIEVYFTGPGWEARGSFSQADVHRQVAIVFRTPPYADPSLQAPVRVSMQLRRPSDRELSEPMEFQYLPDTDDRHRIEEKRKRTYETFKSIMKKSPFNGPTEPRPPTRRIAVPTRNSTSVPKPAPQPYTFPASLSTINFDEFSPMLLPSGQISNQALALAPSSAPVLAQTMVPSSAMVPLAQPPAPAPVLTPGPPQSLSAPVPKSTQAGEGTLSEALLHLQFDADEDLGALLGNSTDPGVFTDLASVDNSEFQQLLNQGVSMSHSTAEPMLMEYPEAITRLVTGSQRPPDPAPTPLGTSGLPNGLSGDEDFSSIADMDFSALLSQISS

J774.A1 [18] = assay: Antiinflammatory activity against mouse J774A.1 cells assessed as inhibition of LPS-stimulated IL6 release measured after 30 mins by ELISA; assay type: functional, cell-based; details: J774.A1, 0.5 h
[19] = Subacute toxicity in ICR mouse assessed as mortality at 500 to 100 mg/kg, IG measured for 10 days; assay type: organism-based; details: in vivo, po, 240 h, dose 500-100 mg/kg, time 10 day
Mus musculus [20] = assay: Antiinflammatory activity against LPS-induced acute lung injury C57 mouse model assessed as decrease in LPS-induced IL-6 level in alveolar lavage fluid at 20 mg/kg, po thrice at 12 hrs interval; assay type: functional, organism-based; details: Bronchoalveolar lavage
[21] = target: Mitogen-activated protein kinase 9 (Mus musculus) (UniProt Q9WTU6); assay: Binding affinity to JNK2 in protein lysate of LPS-stimulated mouse J774A.1 cells assessed as protein degradation in presence of pronase at 10 to 40 uM measured after overnight incubation by immunoblotting based drug affinity responsive target stability (DARTS) assay; assay type: subcellular; details: J774.1, dose 10-40 µM
Sequence of Mitogen-activated protein kinase 9 (Mus musculus) (Q9WTU6 whole entry): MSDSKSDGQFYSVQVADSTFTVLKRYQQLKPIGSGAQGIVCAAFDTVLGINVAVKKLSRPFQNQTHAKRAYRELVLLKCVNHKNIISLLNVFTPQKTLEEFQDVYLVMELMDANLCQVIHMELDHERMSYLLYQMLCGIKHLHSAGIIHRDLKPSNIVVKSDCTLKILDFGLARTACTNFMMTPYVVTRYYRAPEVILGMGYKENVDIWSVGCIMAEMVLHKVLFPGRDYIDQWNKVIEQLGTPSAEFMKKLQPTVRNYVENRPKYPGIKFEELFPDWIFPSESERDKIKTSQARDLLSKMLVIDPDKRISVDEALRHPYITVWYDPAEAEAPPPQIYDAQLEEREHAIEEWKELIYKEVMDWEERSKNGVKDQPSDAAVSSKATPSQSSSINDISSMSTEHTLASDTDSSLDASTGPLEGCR

[22] = target: Mitogen-activated protein kinase 9 (Homo sapiens, UniProt P45984); assay: Binding affinity to JNK2 (unknown origin) assessed as dissociation constant by SPR analysis
Sequence of Mitogen-activated protein kinase 9 (P45984 whole entry): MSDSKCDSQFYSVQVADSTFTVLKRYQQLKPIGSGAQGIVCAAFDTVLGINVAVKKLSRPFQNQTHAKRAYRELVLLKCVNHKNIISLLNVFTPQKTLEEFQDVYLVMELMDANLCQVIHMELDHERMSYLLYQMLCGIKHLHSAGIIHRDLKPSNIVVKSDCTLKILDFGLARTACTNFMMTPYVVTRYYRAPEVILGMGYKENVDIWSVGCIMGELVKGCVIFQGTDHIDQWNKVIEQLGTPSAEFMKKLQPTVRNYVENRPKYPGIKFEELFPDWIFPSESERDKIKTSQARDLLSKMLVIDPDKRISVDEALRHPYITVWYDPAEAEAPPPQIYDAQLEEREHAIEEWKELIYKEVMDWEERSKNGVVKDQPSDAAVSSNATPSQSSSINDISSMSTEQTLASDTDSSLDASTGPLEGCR

COc1cc2nccc(Oc3ccc(NC(=O)c4nn(-c5ccc(C)cc5)c(=O)cc4C)cc3)c2cc1OC
AUCt [1]: 7792.708 ng·h/mL
Activity [2]: inactive
inhibition [3]: Active
IC50 (J774.A1 [4]): 5.3 µM
Activity [5]: Non-Toxic
inhibition at 10 µM (J774.A1 [6]): 56.8%
Activity [7]: Non-Toxic
Activity (Mus musculus [8]): inactive
Activity [9]: Non-Toxic
Activity (Mus musculus [10]): Active
viability at 24 h, 10 µM [11]: > 80%
Activity (Mus musculus [12]): inactive
Activity (THP-1 [13]): Dose-Dependent Effect
Activity (THP-1 [14]): Dose-Dependent Effect
Activity (Mus musculus [15]): inactive
Activity (Mus musculus [16]): Active
inhibition [17]: Active
IC50 (J774.A1 [18]): 7.11 µM
Activity [19]: Non-Toxic
Activity (Mus musculus [20]): Active
Activity [21]: inactive
Kd [22]: 79.2 µM

Reference: ChEMBL document CHEMBL5321290, “Discovery of the Diphenyl 6-Oxo-1,6-dihydropyridazine-3-carboxylate/carboxamide Analogue J27 for the Treatment of Acute Lung Injury and Sepsis by Targeting JNK2 and Inhibiting the JNK2-NF-κB/MAPK Pathway” (J Med Chem, 2023)
